“Also recorded” adds a separate entry of the source. Marks after values point to notes of the source that are not given here.
Assays:
Assay type in all cases: physicochemical
[1] = Stability study of selected solid forms, XRPD after 7 days of storage
Source text: XRPD diffractograms were collected with a Bruker, D2 Phaser or Panalytical Empyrean X-ray diffractometer. Diffractograms can be read by one of skill in the art, for example, to determine if a chemical sample is the substantially the same, different, or represents a mixture of forms. When a diffractogram is “substantially in accordance” as another diffractogram, a person of skill in the art would regard the samples resulting in the two diffractograms as the same form or same mixture of forms, taking into account minor variations for instrumentation, conditions, and the like.
A stability study comparing amorphous freebase Compound I, Freebase Form II, 2-Napsylate Form I, Fumarate Form I, Succinate Form I, and Camsylate Form I was conducted. HPLC measurements were taken after 7 days of storage at the indicated conditions.

[2] = Stability of freebase Compound (I) in amorphous form, HPLC purity on storage
Procedure: (§1) HPLC analysis was performed with an Agilent HPLC 1260 series instrument.
The stability of the freebase amorphous form of Compound (I), for example, as prepared in Example 1, was assessed by High Performance Liquid Chromatography (HPLC). […] Freebase Compound (I) in amorphous form was added to 5 separate vials. Each vial was sealed and stored for a period of 5 days at 20° C., 40° C., 60° C., 80° C., and 100° C., respectively. Purity was assessed by HPLC initially, and after 1, 3, and 5 days of storage.

[3] = Stability study of selected solid forms, HPLC purity after 7 days of storage
[4] = Long term and accelerated stability of 2-Napsylate Form I; settings: for Changes on storage: as of 3 months
Procedure: Samples of 2-Napsylate Form I were further tested for long term and accelerated stability. Samples of the compound are stored at conditions of either 2-8° C. (long term) or 25° C. and 60% RH (accelerated). Stability samples are packaged in double low-density polyethylene (LDPE) bags in a high-density polyethylene (HDPE) outer container.
Samples are tested for appearance, assay, chemical purity, water content, microbial limits, and crystallinity.

[5] = Storage at 40° C. and 75% RH for one week (XRPD)
Procedure: The stability of 2-Napsylate Form I was compared with the stability of 2-[…] Form VI when stored at 40° C. and 75% RH for a period of one week.

[6] = Hygroscopicity by DVS, XRPD before and after; settings: two DVS cycles, 0-90% RH
Procedure: Hygroscopicity of 2-Napsylate Forms I and VI were assessed using DVS. Samples of 2-Napyslate Form I and Form VI (7-20 mg) were placed separately into a tared sample chamber and automatically weighed.

[7] = Stability of 2-Napsylate Form I under variable humidity (XRPD); settings: RH 10% to 90% at 25° C., every 10% RH, 4 hr equilibration at each step
Procedure: 2-Napsylate Form I was used to test form changes as a function of RH from 10% to 90% at 25° C. The XRPD data was collected every 10% RH (FIG. 20) with an equilibration time of 4 hr at each step.

[8] = Form conversion of 2-Napsylate crystalline forms on vacuum drying or in slurry (XRPD); settings: for Crystal form after drying: drying at 40° C. under vacuum (overnight)
[9] = Stability of amorphous salt forms of Compound (I), HPLC purity loss on storage; settings: for HPLC Purity Loss (%): stored at RT for 10 days under ambient humidity (~75% RH), purity on day 3 minus purity on day 10; for HPLC Purity Loss on Day 14 (%): 14 days at 40° C., 75% RH
Procedure: as §1
The stability of various amorphous salt forms of Compound (I) was also assessed. The salt forms, in general, were prepared by suspending Compound (I) in a suitable solvent at ambient temperature and adding the corresponding acid to the mixture. The mixtures were allowed to stir until a solution was formed, filtered to remove any trace solids, and the resulting filtrate lyophilized to access the salts as solids. Characterization by XRPD established that all salt forms were amorphous. […]

[10] = 7 days, 2° C., listed as Amorphous Freebase
[11] = 7 days, 25° C., listed as Amorphous Freebase
[12] = 7 days, 40° C. / 75% RH, listed as Amorphous Freebase
[13] = T0, listed as Amorphous Freebase

SMILES: Cc1cccnc1-c1ccc(-c2n[nH]c3ncc(-c4ccc5c(c4)CC[C@@H](N4C6COCC4C6)CC5)cc23)nc1 [Amorphous Compound (I) (freebase)]
- XRPD (solid form) [1, 10]: Amorphous
- XRPD (solid form) [1, 11]: Amorphous
- XRPD (solid form) [1, 12]: Amorphous
- XRPD (solid form) [1, 13]: Amorphous
- HPLC purity ([2]; 40° C., Day 0): 96.45 % purity
- HPLC purity ([2]; 40° C., Day 1): 96.12% purity
- HPLC purity ([2]; 40° C., Day 3): 95.87% purity
- HPLC purity ([2]; 40° C., Day 5): 95.00% purity
- HPLC purity ([2]; 60° C., Day 0): 96.45 % purity
- HPLC purity ([2]; 60° C., Day 1): 95.92% purity
- HPLC purity ([2]; 60° C., Day 3): 93.06% purity
- HPLC purity ([2]; 60° C., Day 5): 92.39% purity
- HPLC purity ([2]; 80° C., Day 0): 96.45 % purity
- HPLC purity ([2]; 80° C., Day 1): 95.01% purity
- HPLC purity ([2]; 80° C., Day 3): 91.87% purity
- HPLC purity ([2]; 80° C., Day 5): 89.86% purity
- HPLC purity ([2]; 100° C., Day 0): 96.45 % purity
- HPLC purity ([2]; 100° C., Day 1): 90.13% purity
- HPLC purity ([2]; 100° C., Day 3): 74.66% purity
- HPLC purity ([2]; 100° C., Day 5): 68.00% purity
- HPLC purity ([2]; r.t., Day 0): 96.45 % purity
- HPLC purity ([2]; r.t., Day 1): 96.23% purity
- HPLC purity ([2]; r.t., Day 3): 96.01% purity
- HPLC purity ([2]; r.t., Day 5): 96.03% purity
- Decomposition on storage (HPLC) ([2]; sealed vials, 5 days at 20° C., 40° C., 60° C., 80° C., 100° C.): underwent decomposition
- HPLC Purity (A %) [3, 10]: 97.68 A %
- HPLC Purity (A %) [3, 11]: 97.58 A %
- HPLC Purity (A %) [3, 12]: 96.88 A %
- HPLC Purity (A %) [3, 13]: 97.42 A %

SMILES: Cc1cccnc1-c1ccc(-c2n[nH]c3ncc(-c4ccc5c(c4)CC[C@@H](N4C6COCC4C6)CC5)cc23)nc1 [2-Napsylate Form I]
- Assay ‘anhydrous and solvent-free basis’ (% w/w) ([4]; 2-8° C., 1 month): 96.9 % w/w
- Crystallinity ([4]; 2-8° C., 1 month): Crystalline
- Total impurity (% a/a) ([4]; 2-8° C., 1 month): 1.7 % a/a
- Water content (% w/w) ([4]; 2-8° C., 1 month): 1.2 % w/w
- Assay ‘anhydrous and solvent-free basis’ (% w/w) ([4]; 2-8° C., 3 months): 96.1 % w/w
- Crystallinity ([4]; 2-8° C., 3 months): Crystalline
- Total impurity (% a/a) ([4]; 2-8° C., 3 months): 1.7 % a/a
- Water content (% w/w) ([4]; 2-8° C., 3 months): 1.8 % w/w
- Assay ‘anhydrous and solvent-free basis’ (% w/w) ([4]; 2-8° C., 6 months): 97.7 % w/w
- Crystallinity ([4]; 2-8° C., 6 months): Crystalline
- Total impurity (% a/a) ([4]; 2-8° C., 6 months): 1.4 % a/a
- Water content (% w/w) ([4]; 2-8° C., 6 months): 2.1 % w/w
- Assay ‘anhydrous and solvent-free basis’ (% w/w) ([4]; 2-8° C., Initial): 95.8 % w/w
- Crystallinity ([4]; 2-8° C., Initial): Crystalline
- Total impurity (% a/a) ([4]; 2-8° C., Initial): 1.5 % a/a
- Water content (% w/w) ([4]; 2-8° C., Initial): 0.87 % w/w
- Assay ‘anhydrous and solvent-free basis’ (% w/w) ([4]; 25° C. and 60% RH, 1 month): 96.8 % w/w
- Total impurity (% a/a) ([4]; 25° C. and 60% RH, 1 month): 1.8 % a/a
- Water content (% w/w) ([4]; 25° C. and 60% RH, 1 month): 1.2 % w/w
- Assay ‘anhydrous and solvent-free basis’ (% w/w) ([4]; 25° C. and 60% RH, 3 months): 95.2 % w/w
- Total impurity (% a/a) ([4]; 25° C. and 60% RH, 3 months): 1.8 % a/a
- Water content (% w/w) ([4]; 25° C. and 60% RH, 3 months): 1.6 % w/w
- Assay ‘anhydrous and solvent-free basis’ (% w/w) ([4]; 25° C. and 60% RH, 6 months): 96.2 % w/w
- Total impurity (% a/a) ([4]; 25° C. and 60% RH, 6 months): 1.6 % a/a
- Water content (% w/w) ([4]; 25° C. and 60% RH, 6 months): 2.1 % w/w
- Assay ‘anhydrous and solvent-free basis’ (% w/w) ([4]; 25° C. and 60% RH, Initial): 95.8 % w/w
- Total impurity (% a/a) ([4]; 25° C. and 60% RH, Initial): 1.5 % a/a
- Water content (% w/w) ([4]; 25° C. and 60% RH, Initial): 0.87 % w/w
- Changes on storage ([4]; accelerated (25° C. and 60% RH)): no significant changes
- Changes on storage ([4]; long term (2-8° C.)): no significant changes
- Stability on storage (XRPD) [5]: stable
- Form change after DVS testing (XRPD) [6]: no form change
- Form change as a function of RH (XRPD) [7]: No form change was observed
- Crystal form after prolonged slurry ([8]; slurry at 50° C., ACN/DMSO (11:1), after 20 days): Form IV + extra XRPD
- XRPD (solid form) ([1]; 7 days, 25° C.): Form I
- XRPD (solid form) ([1]; 7 days, 40° C. / 75% RH): Form I
- XRPD (solid form) ([1]; 7 days, 60° C.): Form I
- XRPD (solid form) ([1]; T0): Form I
- HPLC Purity (A %) ([3]; 7 days, 25° C.): 99.82 A %
- HPLC Purity (A %) ([3]; 7 days, 40° C. / 75% RH): 99.35 A %
- HPLC Purity (A %) ([3]; 7 days, 60° C.): 99.21 A %
- Chemical and physical stability compared to the other forms tested ([3]; Example 6 stability study): better chemical and physical stability; also recorded: improved chemical and physical stability
- HPLC Purity (A %) ([3]; T0): 99.82 A %

SMILES: Cc1cccnc1-c1ccc(-c2n[nH]c3ncc(-c4ccc5c(c4)CC[C@@H](N4C6COCC4C6)CC5)cc23)nc1 [Benzoate]
- HPLC Purity Loss (%) [9]: 3.0* %

SMILES: Cc1cccnc1-c1ccc(-c2n[nH]c3ncc(-c4ccc5c(c4)CC[C@@H](N4C6COCC4C6)CC5)cc23)nc1 [Form V]
- Crystal form after drying [8]: Form VII after

SMILES: Cc1cccnc1-c1ccc(-c2n[nH]c3ncc(-c4ccc5c(c4)CC[C@@H](N4C6COCC4C6)CC5)cc23)nc1 [Form X]
- Crystal form after drying [8]: amorphous after

SMILES: Cc1cccnc1-c1ccc(-c2n[nH]c3ncc(-c4ccc5c(c4)CC[C@@H](N4C6COCC4C6)CC5)cc23)nc1 [Benzene Sulfonic]
- HPLC Purity Loss on Day 14 (%) [9]: 3.4%

SMILES: Cc1cccnc1-c1ccc(-c2n[nH]c3ncc(-c4ccc5c(c4)CC[C@@H](N4C6COCC4C6)CC5)cc23)nc1 [Chloride]
- HPLC Purity Loss on Day 14 (%) [9]: 1.5%
- HPLC Purity Loss (%) [9]: 6.6* %

SMILES: Cc1cccnc1-c1ccc(-c2n[nH]c3ncc(-c4ccc5c(c4)CC[C@@H](N4C6COCC4C6)CC5)cc23)nc1 [Citrate]
- HPLC Purity Loss on Day 14 (%) [9]: 14.2%

From patent US20250230173A1, “SALT FORMS OF AN AXL INHIBITOR” (Arcus Biosciences, Inc., priority 2023, published 2025)
